# Measurements published in publication PMC5517430, “2,3,7,8-Tetrachlorodibenzo-p-dioxin (TCDD)-elicited effects on bile acid homeostasis: Alterations in biosynthesis, enterohepatic circulation, and microbial metabolism” (Scientific Reports, 2017).
# Tests used:
# liver of C57BL/6 mice = test: Histopathological scoring of liver sections; assay type: in vivo, mouse; set-up: Fibrosis (periportal), Mean Grade / Vacuolation (centrilobular), Mean Grade / Necrosis; Inflammatory cell foci, Mean Grade / Bile duct proliferation, Mean Grade: scale not given here; conditions: for Bile duct proliferation, Mean Grade / Fibrosis (periportal), Mean Grade / Necrosis; Inflammatory cell foci, Mean Grade / Vacuolation (centrilobular), Mean Grade: mean ±SD; for Dose at which hepatocyte vacuolization (fatty change) was first observed / Doses at which minimal to slight hepatocyte necrosis and inflammatory cell infiltration were present: every 4 d for 28 d
# Procedure: Postnatal day 25 (PND25) male C57BL/6 mice weighing within 10% of each other were obtained from Charles River Laboratories (Kingston, NY) and housed in Innovive Innocages (San Diego, CA) containing ALPHA-dri bedding (Shepherd Specialty Papers, Chicago, IL) in a 23 °C environment with 30–40% humidity and a 12-hour light/dark cycle (7am–7 pm). Mice were provided Aquavive water (Innovive) and Harlan Teklad 22/5 Rodent Diet 8940 (Madison, WI) ad libitum, and were acclimated for […] prior to treatment. Beginning on PND28, animals (n = 8; co-housed 4 per cage) were orally gavaged with sesame oil vehicle (Sigma-Aldrich, St. Louis, MO), 0.01, 0.03, 0.1, 0.3, 1, 3, 10, or 30 μg/kg TCDD (AccuStandard, New Haven, CT) every 4d for a total of 28d (7 exposures; Supplementary Fig. S3). The doses used compensate for the relatively short study duration compared to lifelong cumulative human exposure from diverse AhR ligands, the bioaccumulative nature of halogenated AhR ligands, and differences in TCDD’s metabolism and half-life (humans: 1–11 years, [61], mice: 8–12d[62]). TCDD doses between 0.01 and 30 µg/kg result in mouse hepatic tissue levels that span human background serum concentrations reported in the United States, Germany, Spain, and the United Kingdom as well as serum levels in Viktor Yushchenko 4–39 months following intentional poisoning. For the histopathological comparison, female C57BL/6 mice were orally gavaged with sesame oil vehicle or 0.01–30 µg/kg TCDD every 4d for 28d, as previously described. All animal handling procedures were performed with the approval of the Michigan State University (MSU) Institutional Animal Care and Use Committee, in accordance with the relevant ethical guidelines and regulations.
# All processing was performed by the MSU Investigative Histopathology Laboratory (https://humanpathology.natsci.msu.edu/). Formalin-fixed hepatic tissues were vacuum infiltrated with paraffin using a Tissue-Tek VIP 2000 tissue processor (Sakura) and embedded with the Thermo Fisher HistoCentre III Embedding Center (Thermo Fisher, Waltham, Massachusetts). Paraffin blocks were sectioned at 4–5 µm with a Reichert Jung 2030 rotary microtome (Reichert, Depew, New York) and dried for 2–24 h at 56 °C to ensure adherence to the slides. For lipid staining, liver sections frozen in O.C.T. compound were sectioned at 6 µm, fixed in 10% NBF for 5 min, rinsed with water, and immersed in 100% propylene glycol for 5 min. Liver sections were stained with hematoxylin and eosin (H&E) for general histological assessment. Lipids were stained using Oil Red O (ORO) as previously described. Macrophages were labeled using a monoclonal anti-mouse F4/80 antibody (1:100 dilution; AbD Serotec, Raleigh, NC). Collagen was stained with 0.1% Picro-Sirius Red (PSR) dye, with Weigert’s Hematoxylin nuclear dye. Histological assessment of hepatic tissue from female C57BL/6 mice was performed as previously described, [32].
# hepatic cholesterol = tested on: hepatic cholesterol; set-up: method as in PMID 28238261; conditions: male C57BL/6 mice, 30 µg/kg TCDD every 4 d for 28 d, cited from earlier work
# Gpbar1 = test: Hepatic qRT-PCR; assay type: in vivo; conditions: Mus musculus; male mice, 30 µg/kg TCDD every 4 d for 28 d; read-out: Gpbar1 hepatic expression (qRT-PCR), fold induction
# Procedure: Given the low (≤10) read counts for Gpbar1 in the RNA-Seq dataset, differential expression was confirmed by qRT-PCR[13]. Total hepatic RNA was reverse transcribed by SuperScript II (Invitrogen) using oligo dT primer according to the manufacturer’s protocol. PCR amplification was conducted on a Bio-Rad CFX Connect Real-Time PCR Detection System. Gene expression relative to vehicle control was calculated using the 2^−∆∆CT method, where each sample was normalized to the geometric mean of 3 housekeeping genes (Actb, Gapdh, and Hprt). Gene expression data are plotted relative to vehicle control. Forward and reverse primer sequences are provided in Supplementary Table S2.
# [1] = female, 0.3 µg/kg TCDD every 4 d for 28 d
# [2] = female, 1 µg/kg TCDD every 4 d for 28 d
# [3] = female, 3 µg/kg TCDD every 4 d for 28 d
# [4] = female, 10 µg/kg TCDD every 4 d for 28 d
# [5] = female, 30 µg/kg TCDD every 4 d for 28 d
# [6] = male, 0.3 µg/kg TCDD every 4 d for 28 d
# [7] = male, 1 µg/kg TCDD every 4 d for 28 d
# [8] = male, 3 µg/kg TCDD every 4 d for 28 d
# [9] = male, 10 µg/kg TCDD every 4 d for 28 d
# [10] = male, 30 µg/kg TCDD every 4 d for 28 d
compound,measurement,setting,value
"Clc1cc2c(cc1Cl)Oc1cc(Cl)c(Cl)cc1O2 [TCDD, 2,3,7,8-tetrachlorodibenzo-p-dioxin]",Inflammation surrounding the bile ducts (pericholangitis),"liver of C57BL/6 mice; 30 µg/kg TCDD every 4 d for 28 d, male vs female",exclusive to males
same,"Bile duct proliferation, Incidence",liver of C57BL/6 mice; [1],0/8
same,"Fibrosis (periportal), Incidence",liver of C57BL/6 mice; [1],0/8
same,"Necrosis; Inflammatory cell foci, Incidence",liver of C57BL/6 mice; [1],0/8
same,"Vacuolation (centrilobular), Incidence",liver of C57BL/6 mice; [1],0/8
same,"Bile duct proliferation, Incidence",liver of C57BL/6 mice; [2],0/6
same,"Fibrosis (periportal), Incidence",liver of C57BL/6 mice; [2],0/6
same,"Necrosis; Inflammatory cell foci, Incidence",liver of C57BL/6 mice; [2],0/6
same,"Vacuolation (centrilobular), Incidence",liver of C57BL/6 mice; [2],0/6
same,"Bile duct proliferation, Incidence",liver of C57BL/6 mice; [3],0/6
same,"Fibrosis (periportal), Incidence",liver of C57BL/6 mice; [3],0/6
same,"Necrosis; Inflammatory cell foci, Incidence",liver of C57BL/6 mice; [3],0/6
same,"Vacuolation (centrilobular), Incidence",liver of C57BL/6 mice; [3],0/6
same,"Bile duct proliferation, Incidence",liver of C57BL/6 mice; [4],0/4
same,"Fibrosis (periportal), Incidence",liver of C57BL/6 mice; [4],0/4
same,"Necrosis; Inflammatory cell foci, Incidence",liver of C57BL/6 mice; [4],0/4
same,"Vacuolation (centrilobular), Incidence",liver of C57BL/6 mice; [4],1/4
same,"Bile duct proliferation, Incidence",liver of C57BL/6 mice; [5],1/4
same,"Fibrosis (periportal), Incidence",liver of C57BL/6 mice; [5],1/4
same,"Necrosis; Inflammatory cell foci, Incidence",liver of C57BL/6 mice; [5],1/4
same,"Vacuolation (centrilobular), Incidence",liver of C57BL/6 mice; [5],4/4
same,"Bile duct proliferation, Mean Grade",liver of C57BL/6 mice; [5],0.3 ± 0.5
same,"Fibrosis (periportal), Mean Grade",liver of C57BL/6 mice; [5],0.3 ± 0.5
same,"Necrosis; Inflammatory cell foci, Mean Grade",liver of C57BL/6 mice; [5],0.3 ± 0.5
same,"Vacuolation (centrilobular), Mean Grade",liver of C57BL/6 mice; [5],2.0 ± 1.2
same,Dose at which hepatocyte vacuolization (fatty change) was first observed,liver of C57BL/6 mice; females,10 µg/kg
same,Doses at which minimal to slight hepatocyte necrosis and inflammatory cell infiltration were present,liver of C57BL/6 mice; females,30 µg/kg
same,"Bile duct proliferation, Incidence",liver of C57BL/6 mice; [6],0/8
same,"Fibrosis (periportal), Incidence",liver of C57BL/6 mice; [6],0/8
same,"Necrosis; Inflammatory cell foci, Incidence",liver of C57BL/6 mice; [6],0/8
same,"Vacuolation (centrilobular), Incidence",liver of C57BL/6 mice; [6],1/8
same,"Vacuolation (centrilobular), Mean Grade",liver of C57BL/6 mice; [6],0.1 ± 0.4
same,"Bile duct proliferation, Incidence",liver of C57BL/6 mice; [7],0/8
same,"Fibrosis (periportal), Incidence",liver of C57BL/6 mice; [7],0/8
same,"Necrosis; Inflammatory cell foci, Incidence",liver of C57BL/6 mice; [7],0/8
same,"Vacuolation (centrilobular), Incidence",liver of C57BL/6 mice; [7],5/8
same,"Vacuolation (centrilobular), Mean Grade",liver of C57BL/6 mice; [7],0.9 ± 0.8
same,"Bile duct proliferation, Incidence",liver of C57BL/6 mice; [8],0/8
same,"Fibrosis (periportal), Incidence",liver of C57BL/6 mice; [8],0/8
same,"Necrosis; Inflammatory cell foci, Incidence",liver of C57BL/6 mice; [8],2/8
same,"Vacuolation (centrilobular), Incidence",liver of C57BL/6 mice; [8],6/8
same,"Necrosis; Inflammatory cell foci, Mean Grade",liver of C57BL/6 mice; [8],0.3 ± 0.5
same,"Vacuolation (centrilobular), Mean Grade",liver of C57BL/6 mice; [8],1.0 ± 0.8
same,"Bile duct proliferation, Incidence",liver of C57BL/6 mice; [9],0/8
same,"Fibrosis (periportal), Incidence",liver of C57BL/6 mice; [9],0/8
same,"Necrosis; Inflammatory cell foci, Incidence",liver of C57BL/6 mice; [9],6/8
same,"Vacuolation (centrilobular), Incidence",liver of C57BL/6 mice; [9],8/8
same,"Necrosis; Inflammatory cell foci, Mean Grade",liver of C57BL/6 mice; [9],0.8 ± 0.5
same,"Vacuolation (centrilobular), Mean Grade",liver of C57BL/6 mice; [9],3.0 ± 0.5
same,"Bile duct proliferation, Incidence",liver of C57BL/6 mice; [10],5/8
same,"Fibrosis (periportal), Incidence",liver of C57BL/6 mice; [10],5/8
same,"Necrosis; Inflammatory cell foci, Incidence",liver of C57BL/6 mice; [10],8/8
same,"Vacuolation (centrilobular), Incidence",liver of C57BL/6 mice; [10],8/8
same,"Bile duct proliferation, Mean Grade",liver of C57BL/6 mice; [10],0.9 ± 0.8
same,"Fibrosis (periportal), Mean Grade",liver of C57BL/6 mice; [10],0.6 ± 0.5
same,"Necrosis; Inflammatory cell foci, Mean Grade",liver of C57BL/6 mice; [10],1.3 ± 0.5
same,"Vacuolation (centrilobular), Mean Grade",liver of C57BL/6 mice; [10],4.0 ± 0.0
same,Dose at which hepatocyte vacuolization (fatty change) was first observed,liver of C57BL/6 mice; males,0.3 µg/kg
same,Doses at which minimal to slight hepatocyte necrosis and inflammatory cell infiltration were present,liver of C57BL/6 mice; males,≥ 3 µg/kg
same,"Hepatic cholesterol ester level, fold increase",hepatic cholesterol,11.3 fold
same,"Hepatic cholesterol level, fold increase",hepatic cholesterol; not confirmed by high resolution MS/MS,9.0 fold
same,fold induction at 0.03 mg/kg,Gpbar1,4.3
